Values quoted from earlier work, collected in patent US20230200430A1, “ORAL PRODUCTS WITH HIGH-DENSITY LOAD” (NICOVENTURES TRADING LIMITED, priority 2021, published 2023).

Conditions: qualitative statement

Row | Compound | solubility in water / aqueous environment
1 | C=C(C)[C@@H]1CCC(C)=C[C@H]1c1c(O)cc(CCCCC)cc1O [CBD, cannabidiol, reference compound] | insoluble in an aqueous environment
2 | CC(/C=C/C=C(C)/C=C/C(=O)O)=C\C=C\C=C(C)\C=C\C=C(C)\C=C\C(=O)O (stereo in doubt) [norbixin, (2E,4E,6E,8E,10E,12E,14E,16E,18E)-4,8,13,17-tetramethylicosa-2,4,6,8,10,12,14,16,18-nonaenedioic acid] | water soluble
3 | COC(=O)/C=C/C(C)=C\C=C\C(C)=C\C=C\C=C(C)\C=C\C=C(C)\C=C\C(=O)O [Bixin] | insoluble in water
